Test system: IGROV1 complex spheroids (HUVEC, MSC), viability % test/control
Experiment: Anticancer human tumor IGROV1 cell line growth inhibition [GQUAD];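 note: spheroids exposed to compounds for 7 days before readout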
Settings: for IC50: curve of first compound; for viability, T/C: stronger effect = lower value
Text: DNA G-quadruplex Stabilizer Agents in Combinations in Complex Spheroids
A high-throughput screen of multi-cell type tumor spheroids was designed to identify active combinations of DNA G-quadruplex stabilizer agents and targeted small molecules. Complex spheroids include a stromal component modeled by human endothelial cells (HUVEC) and fibroblasts modeled by human mesenchymal stem cells (MSCs). The concentration ranges selected for each drug and investigational agent were based upon clinically achievable concentrations if the clinical Cmax of the agent was known.
Compounds. The drugs and investigational agents: pidnarulex (CX-5461; NSC782164), APTO-253 (NSC789042), BRACO-19 (NSC847499), peposertib (NSC802822), ceralasertib (NSC780249), elimusertib (NSC800525), camonsertib (NSC841442), AZD-1390 (NSC803789), olaparib (NSC753686), talazoparib (NSC767125), ART-558 (NSC835418), sotorasib (NSC818433), MRTX-1133 (NSC836407), SN-38 (NSC673596), topotecan (NSC609699), etoposide (NSC141540), doxorubicin (NSC123127), gemcitabine (NSC613327), 5-fluorouracil (NSC19893), paclitaxel (NSC125973), vemurafenib (NSC761431), panobinostat (NSC761190), R-306465 (JNJ-16241199; NSC773264), adavosertib (NSC754352), TP-3654 (NSC805149), carboplatin (NSC241240), KSQ-4279 (NSC840948), and staurosporine (NSC755774) were obtained from the National Cancer Institute (NCI) Developmental Therapeutics Program Chemical Repository (34). The FDA-approved anticancer drug set is available from the NCI Developmental Therapeutics Program. […] The stock solutions were prepared in dimethyl sulfoxide (DMSO, Sigma-Aldrich, St. Louis, MO, cat. D2650) at 800-fold the tested concentration and stored at -70 degrees C prior to their use. All drugs and investigational agents were tested over a range starting from a high concentration at or near the clinical Cmax and decreasing in half-log increments. If the clinical Cmax for an agent had not been determined, the highest concentration tested was 10 microM.
2.3 Cell Culture. All cells were maintained in an incubator at 37 degrees C and 5% CO2 with 95% humidity. The PDC lines were cultured according to standard operating procedures established by the NCI PDMR. All PDCs were thawed and cultured in Matrigel-coated flasks prepared with a working solution of 1X Ham's F-12 nutrient mix, without supplementation (Invitrogen, cat. 11765054), 100 U/mL penicillin-streptomycin (Invitrogen, cat. 15140122), and 2.5% Matrigel (Corning Inc., cat. 354248) for the first three passages. The 857933-349-R-J2-PDC line was cultured in 6C/Colon 1B media, which includes advanced DMEM/F-12 (Thermo Fisher Scientific, cat. 12634028), 10 mM HEPES (Thermo Fisher Scientific, cat. 15630080), 1X GlutaMAX supplement (Thermo Fisher Scientific, cat. 35050061), 0.1 mg/mL primocin (InvivoGen, cat. ant-pm-2), 10% defined fetal bovine serum, heat inactivated (HyClone Laboratories Inc., cat. SH30070.03HI), 50% L-WRN conditioned media (ATCC, cat. CRL-3276), 1.25 mM N-Acetyl-L-cysteine (Sigma-Aldrich, cat. A9165), 10 mM nicotinamide (Sigma-Aldrich, cat. N0636), 1X B-27 supplement (Thermo Fisher Scientific, cat. 17504044), 1X N-2 supplement (Thermo Fisher Scientific, cat. 17502048), 10 microM Y-27632 dihydrochloride (Tocris Bioscience, cat. 1254), and 50 ng/mL human EGF recombinant protein (Thermo Fisher Scientific, cat. PHG0311). The 485176-168-R4-J1-PDC line was cultured in Panc media, which includes all 6C/Colon 1B media components plus 100 ng/mL human FGF-10 (Thermo Fisher Scientific, cat. 100-26), 500 nM SB-431542 (Selleckchem, cat. S1067), and gastrin (Tocris, cat. 3006).
[…]

[1] = second compound 0.0316 µM, first compound 0.0316 µM
[2] = second compound 0.0316 µM, first compound 0.1 µM
[3] = second compound 0.0316 µM, first compound 0.316 µM
[4] = second compound 0.0316 µM, first compound 1 µM
[5] = second compound 0.0316 µM, first compound 3.16 µM
[6] = second compound 0.0316 µM, first compound 10 µM
[7] = second compound 0.1 µM, first compound 0.0316 µM
[8] = second compound 0.1 µM, first compound 0.1 µM
[9] = second compound 0.1 µM, first compound 0.316 µM
[10] = second compound 0.1 µM, first compound 1 µM
[11] = second compound 0.1 µM, first compound 3.16 µM
[12] = second compound 0.1 µM, first compound 10 µM
[13] = second compound 0.316 µM, first compound 0.0316 µM
[14] = second compound 0.316 µM, first compound 0.1 µM
[15] = second compound 0.316 µM, first compound 0.316 µM
[16] = second compound 0.316 µM, first compound 1 µM
[17] = second compound 0.316 µM, first compound 3.16 µM
[18] = second compound 0.316 µM, first compound 10 µM
[19] = second compound 1 µM, first compound 0.0316 µM
[20] = second compound 1 µM, first compound 0.1 µM
[21] = second compound 1 µM, first compound 0.316 µM
[22] = second compound 1 µM, first compound 1 µM
[23] = second compound 1 µM, first compound 3.16 µM
[24] = second compound 1 µM, first compound 10 µM
[25] = second compound 3.16 µM, first compound 0.0316 µM
[26] = second compound 3.16 µM, first compound 0.1 µM
[27] = second compound 3.16 µM, first compound 0.316 µM
[28] = second compound 3.16 µM, first compound 1 µM
[29] = second compound 3.16 µM, first compound 3.16 µM
[30] = second compound 3.16 µM, first compound 10 µM
[31] = second compound 10 µM, first compound 0.0316 µM
[32] = second compound 10 µM, first compound 0.1 µM
[33] = second compound 10 µM, first compound 0.316 µM
[34] = second compound 10 µM, first compound 1 µM
[35] = second compound 10 µM, first compound 3.16 µM
[36] = second compound 10 µM, first compound 10 µM

For `C=CC(=O)N1CCN(c2nc(=O)n(-c3c(C)ccnc3C(C)C)c3nc(-c4c(O)cccc4F)c(F)cc23)C(C)C1` (centres undefined) + CN(C)c1ccc(Nc2c3ccc(NC(=O)CCN4CCCC4)cc3nc3cc(NC(=O)CCN4CCCC4)ccc23)cc1, the IC50 (second compound 0.0316 µM) was > 10 µM, the IC50 (second compound 0.1 µM) was > 10 µM and the IC50 (second compound 0.316 µM) was > 10 µM. For the same molecule, the IC50 (second compound 1 µM) was > 10 µM, the IC50 (second compound 3.16 µM) was > 10 µM and the IC50 (second compound 10 µM) was 4.88 µM. For the same molecule, the viability, T/C [1] was 99.1%, the viability, T/C [2] was 100% and the viability, T/C [3] was 106%. The viability, T/C [4] was 90.7%, the viability, T/C [5] was 104% and the viability, T/C [6] was 90.5%. For the same molecule, the viability, T/C [7] was 99.7%, the viability, T/C [8] was 90.3% and the viability, T/C [9] was 96.3%. For the same molecule, the viability, T/C [10] was 88.5%, the viability, T/C [11] was 111% and the viability, T/C [12] was 104%. For the same molecule, the viability, T/C [13] was 91.5%, the viability, T/C [14] was 75.2% and the viability, T/C [15] was 88.4%. It also gave a viability, T/C [16] of 83.3%, a viability, T/C [17] of 111% and a viability, T/C [18] of 83.3%. It also gave a viability, T/C [19] of 90.1%, a viability, T/C [20] of 70.3% and a viability, T/C [21] of 93.7%. It also gave a viability, T/C [22] of 108%, a viability, T/C [23] of 106% and a viability, T/C [24] of 95.1%. It also gave a viability, T/C [25] of 86%, a viability, T/C [26] of 86.4% and a viability, T/C [27] of 101%. It also gave a viability, T/C [28] of 99.5%, a viability, T/C [29] of 99.5% and a viability, T/C [30] of 77.8%. For the same molecule, the viability, T/C [31] was 62.6%, the viability, T/C [32] was 58.7% and the viability, T/C [33] was 67.2%. For the same molecule, the viability, T/C [34] was 71.8%, the viability, T/C [35] was 64.1% and the viability, T/C [36] was 26.3%.

For `CCCS(=O)(=O)Nc1ccc(F)c(C(=O)c2c[nH]c3ncc(-c4ccc(Cl)cc4)cc23)c1F` + CN(C)c1ccc(Nc2c3ccc(NC(=O)CCN4CCCC4)cc3nc3cc(NC(=O)CCN4CCCC4)ccc23)cc1, the IC50 (second compound 0.0316 µM) was 5.67 µM, the IC50 (second compound 0.1 µM) was 5.61 µM and the IC50 (second compound 0.316 µM) was 5.39 µM. The IC50 (second compound 1 µM) was 5.19 µM, the IC50 (second compound 3.16 µM) was 4.48 µM and the IC50 (second compound 10 µM) was 1.46 µM. It also gave a viability, T/C [1] of 103%, a viability, T/C [2] of 84.7% and a viability, T/C [3] of 112%. The viability, T/C [4] was 79.3%, the viability, T/C [5] was 86.7% and the viability, T/C [6] was 17.7%. The viability, T/C [7] was 103%, the viability, T/C [8] was 73.7% and the viability, T/C [9] was 90.4%. The viability, T/C [10] was 72%, the viability, T/C [11] was 83.5% and the viability, T/C [12] was 16.2%. For the same molecule, the viability, T/C [13] was 86.2%, the viability, T/C [14] was 99.7% and the viability, T/C [15] was 98%. For the same molecule, the viability, T/C [16] was 80.5%, the viability, T/C [17] was 82.3% and the viability, T/C [18] was 15.1%. For the same molecule, the viability, T/C [19] was 57.9%, the viability, T/C [20] was 97.9% and the viability, T/C [21] was 88%. The viability, T/C [22] was 89.3%, the viability, T/C [23] was 77.7% and the viability, T/C [24] was 13.2%. It also gave a viability, T/C [25] of 78.1%, a viability, T/C [26] of 88.7% and a viability, T/C [27] of 82.4%. For the same molecule, the viability, T/C [28] was 96.2%, the viability, T/C [29] was 67.4% and the viability, T/C [30] was 9.77%. For the same molecule, the viability, T/C [31] was 53.1%, the viability, T/C [32] was 59.3% and the viability, T/C [33] was 60.7%. The viability, T/C [34] was 67.9%, the viability, T/C [35] was 29.2% and the viability, T/C [36] was 3.73%.

Source: PubChem BioAssay AID2060486 (Molecular Pharmacology Branch, DTP, NCI, 2025)
